Reference: patent US20210186943A1, “OTIC FORMULATIONS FOR DRUG-INDUCED OTOTOXICITY” (OTONOMY, INC., priority 2018, published 2021)
Like-named read-outs stand apart in the source and are kept apart here.

How the values were obtained:
[1] = tested on: spiral ganglion neurons (SGNs); experiment: Protection of spiral ganglion neurons from cisplatin-induced degeneration in cochlear explant model (Example B10); assay type: cell-based; settings: 1.5 hour pretreatment followed by co-treatment with 10 μM cisplatin
Protocol: (§1) Protective effects of various otoprotectant molecules on cisplatin-induced degeneration of hair cells and spiral ganglion neurons were measured. FIGS. 19 and 20 show the quantified percent protection (normalized to naïve) graphs for outer hair cells (OHCs) and spiral ganglion neurons (SGNs).

outer hair cells (OHCs) = experiment: Protection of outer hair cells from cisplatin-induced degeneration in cochlear explant model (Example B10); assay type: cell-based; settings: 1.5 hour pretreatment followed by co-treatment with 10 μM cisplatin
Protocol: as §1

cochlear hair cells [2] = experiment: Effect of solvents on cisplatin-induced hair cell toxicity in cochlear explants; assay type: cell-based, Sprague Dawley rat; settings: for Affect Cisplatin Toxicity: cisplatin exposed explants; for effect on cisplatin-induced hair cell toxicity: summary of Table M
Protocol: (§2) P2-P4 Sprague Dawley rat pups were used for all experiments.
(§3) Day 0: Dissected whole cochleae were mounted onto Cell-Tak-coated mesh inserts and incubated overnight in growth medium.
(§4) Day 3-4: Cochlea were fixed in 4% PFA overnight then immunohistochemically processed with the following: anti-MyoVIIa (1:500), anti-Neurofilament (1:500), Phalloidin (1:250), and DAPI (1:1000).
(§5) Z-stacks of the entire cochlea were imaged at 20x and stitched together using Zeiss Zen Black software. […] Healthy HCs and SGN fibers were counted within each box using Zeiss Zen Blue software. Error bars represent ±s.e.m. unless otherwise indicated.

cochlear hair cells [3] = tested on: cochlear hair cells
Protocol: as §2, §3, §4, §5

dissociated strial cells = experiment: Caspase-Glo 3/7 caspase activation in dissociated strial cultures (Example B7); assay type: cell-based, Sprague Dawley rat; settings: 0.5% DMSO vs 0% DMSO
Protocol: Post cochlear dissection, Reissner's membrane and the lateral wall were gently separated from the basilar membrane with fine forceps. The stria vascularis was then pulled off the lateral wall and collected separately. Cells were then dissociated using a pipette post-trypsinization and seeded onto Poly-d-lysine-coated 96-well plates. Cells were grown for 48-72 hours to achieve 80-90% confluency before treatment. […] Following treatment, cells were exposed to the Caspase-Glo 3/7 (Promega) reagent for 30 minutes then […] was read on a plate reader.
The dissociated strial cells were mostly comprised of marginal cells by 24 hours in vitro.

guinea pigs = experiment: Acute cisplatin-induced hearing loss (CIHL) model, ABR threshold shift; assay type: in vivo, guinea pig; settings: single IT SP-600125 (20 mg/ml) in P407 24 hours prior to cisplatin IP 12 mg/kg; 7 days post-treatment; 4, 8, 16 kHz; vs IT P407 vehicle
Protocol: SP-600125 (20 mg/ml) in P407: 205.4 g of DI water were weighed. 1.1342 g of sodium chloride (Fisher Scientific) and 1.53 g of tromethamine (Fisher Scientific) were added. Solid materials were dissolved and the pH of the solution was adjusted to 7.8 with approximately 1.9 mL of 5 N HCl. 126.2 g of buffer was weighed and chilled down and 24.5 g of Poloxamer 407 (Lutrol F127, BASF) were added (e.g., sprinkled) while mixing to dissolve. The approximately 16% poloxamer solution was sterile filtered with a 0.22 μm PVDF 33 mm syringe filter. 207 mg of milled SP600125 (LC laboratories) was added, followed by […] of sterile filtered 16% Poloxamer 407 solution. The solution was then transferred to 3 mL autoclaved vials.
Female albino guinea pigs […] (n=6 per group) of approximately 6-8 weeks of age served as subjects for the experiments. […]
Auditory Brainstem Response (ABR) assessment—During the procedure, additional anesthetic was administered if needed to maintain the depth of anesthesia sufficient to insure immobilization and relaxation. ABRs were recorded in an electrically and acoustically shielded chamber, one ear at a time. […] Acoustic calibration was performed with TDT software (SigCal) and thresholds were expressed as dB SPL in conditions identical to that of threshold recordings in animals. […]
ABR thresholds were determined 7 days post-treatment at 3 frequencies (4, 8, and 16 kHz).

strial cells = experiment: Caspase 3/7 activation in dissociated strial cultures with cisplatin and antioxidants (Example B8); assay type: cell-based, Sprague-Dawley rat; settings: cisplatin alone
Text: Neonatal (P2-P4) Sprague-Dawley rats were used for the experiments described here. Animals were euthanized following anesthesia using isoflurane. Rat cochleae were then dissected in cold HBSS medium enriched with glucose.
Following cochlear dissection, Reissner's membrane and the lateral wall were separated and the stria vascularis was then removed from the lateral wall. Strial cells were then dissociated, seeded onto Poly-d-lysine coated 96 well plates and grown to achieve 80-90% confluency before treatment. […] After incubation, cells were lysed using the Promega caspase 3/7 Glo kit and the intensity of caspase 3/7 were read using Perkin-Elmer Enspire plate reader.
At this stage, cells also began to show formation of vessels (Laminin staining).

cochlear hair cells [4] = experiment: Cisplatin-induced hair cell damage in ex vivo cochlear explants; assay type: cell-based, Sprague Dawley rat; set-up: dose or concentration left out as unconfirmed; settings: various cisplatin concentrations, 48 or 72 hours
Text: (§6) Error bars represent ±s.e.m. unless otherwise indicated.

[5] = tested on: spiral ganglion neurons (SGNs); experiment: Cisplatin-induced spiral ganglion neuron damage in ex vivo cochlear explants; assay type: cell-based, Sprague Dawley rat; set-up: SGN fiber density (SGNs per 200 μm): dose or concentration left out as unconfirmed
Text: as §6

## Nc1nc2nc[nH]c2c(=S)[nH]1 [6-thioguanine]
[1]
  percent protection (normalized to naïve) of spiral ganglion neurons: complete protection
Outer hair cells (OHCs)
  percent protection (normalized to naïve) of outer hair cells: almost complete protection

## CC(C)=O [Acetone]
Cochlear hair cells [2]; solvent concentration 1%
  Affect Cisplatin Toxicity: No
Cochlear hair cells [2]; solvent concentration 2%
  Affect Cisplatin Toxicity: No
Cochlear hair cells [3]; solvent concentration 1%, cochlear explants
  HC Toxicity: No
Cochlear hair cells [3]; solvent concentration 2%, cochlear explants
  HC Toxicity: No
Cochlear hair cells [3]; summary of Table M, all tested concentrations
  toxicity on naive cochlear explants: no evident toxicity

## CC#N [Acetonitrile]
Cochlear hair cells [2]; solvent concentration 3%
  Affect Cisplatin Toxicity: No
Cochlear hair cells [3]; solvent concentration 3%, cochlear explants
  HC Toxicity: Slight

## O=C(OCc1ccccc1)c1ccccc1 [Benzyl benzoate]
Cochlear hair cells [2]; solvent concentration 0.5%
  Affect Cisplatin Toxicity: No
Cochlear hair cells [2]; solvent concentration 1%
  Affect Cisplatin Toxicity: No
Cochlear hair cells [3]
  HC Toxicity: No
  toxicity on naive cochlear explants: no evident toxicity

## C[S+](C)[O-] [DMSO, dimethyl sulfoxide]
Cochlear hair cells [2]; solvent concentration 0.1%
  Affect Cisplatin Toxicity: Yes-Protection
Cochlear hair cells [2]; solvent concentration 0.5%
  Affect Cisplatin Toxicity: Yes-Protection
Cochlear hair cells [2]; solvent concentration 1%
  Affect Cisplatin Toxicity: Yes-Protection
Cochlear hair cells [2]
  effect on cisplatin-induced hair cell toxicity: reduced cisplatin-induced hair cell toxicity
Cochlear hair cells [3]
  HC Toxicity: No
  toxicity on naive cochlear explants: no evident toxicity
Dissociated strial cells
  effect on cisplatin-induced caspase activation (relative light units): reduced cisplatin-induced caspase activation

## CCO [Ethanol]
Cochlear hair cells [2]; solvent concentration 1%
  Affect Cisplatin Toxicity: No
Cochlear hair cells [2]; solvent concentration 2%
  Affect Cisplatin Toxicity: No
Cochlear hair cells [2]; solvent concentration 2.5%
  Affect Cisplatin Toxicity: No
Cochlear hair cells [3]
  HC Toxicity: No
  toxicity on naive cochlear explants: no evident toxicity

## CN1CCCC1=O [N-Methyl-2-pyrrolidone]
Cochlear hair cells [3]
  HC Toxicity: Yes

## O=C1c2ccccc2-c2n[nH]c3cccc1c23 [SP-600125, anthra[1,9-cd]pyrazol-6(2H)-one]
Guinea pigs
  ABR threshold shift: dramatically reduced the ABR threshold shift

## N.N.[Cl][Pt][Cl] [cisplatin]
Strial cells
  caspase 3/7 activation (RLU): increased caspase 3/7 activation
Cochlear hair cells [4]
  IHCs per 200 μm: decreased in a dose- and exposure time-dependent manner
  OHCs per 200 μm: decreased in a dose- and exposure time-dependent manner
[5]; base, mid, apex regions
  difference from base to apex in SGN susceptibility to cisplatin: No significant difference
[5]; varying concentrations of cisplatin, 48 or 72 hours
  SGN fiber density (SGNs per 200 μm): decreases in a dose dependent manner

## PEG400
Cochlear hair cells [2]; solvent concentration 2%
  Affect Cisplatin Toxicity: Yes-Protection
Cochlear hair cells [2]
  effect on cisplatin-induced hair cell toxicity: reduced cisplatin-induced hair cell toxicity
